# Data published in US20220396569A1 (Carmot Therapeutics, Inc., priority 2021, published 2022).
# Target: T1, human GLP-1 receptor (Homo sapiens, UniProt P43220)
# T1 construct: expressed in transfected cells
# Test: GLP-1R cAMP Assay (HitHunter cAMP accumulation)
# Assay type: cell-based
# Conditions: cAMP accumulation, CHO cells stably overexpressing human GLP-1 receptor, 30 min treatment; read-out: EC50
# Procedure, shortened: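 CHO cells stably expressing human GLP-1R, 10,000 cells/well in HBSS with 10 mM HEPES and 625 μM IBMX, were mixed with anti-cAMP antibody reagent. Compound was applied as a 20-point dose response in triplicate for 30 min. After lysis and overnight detection, luminescence was read and dose-response curves analysed.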
# T1 sequence (P43220 24-463): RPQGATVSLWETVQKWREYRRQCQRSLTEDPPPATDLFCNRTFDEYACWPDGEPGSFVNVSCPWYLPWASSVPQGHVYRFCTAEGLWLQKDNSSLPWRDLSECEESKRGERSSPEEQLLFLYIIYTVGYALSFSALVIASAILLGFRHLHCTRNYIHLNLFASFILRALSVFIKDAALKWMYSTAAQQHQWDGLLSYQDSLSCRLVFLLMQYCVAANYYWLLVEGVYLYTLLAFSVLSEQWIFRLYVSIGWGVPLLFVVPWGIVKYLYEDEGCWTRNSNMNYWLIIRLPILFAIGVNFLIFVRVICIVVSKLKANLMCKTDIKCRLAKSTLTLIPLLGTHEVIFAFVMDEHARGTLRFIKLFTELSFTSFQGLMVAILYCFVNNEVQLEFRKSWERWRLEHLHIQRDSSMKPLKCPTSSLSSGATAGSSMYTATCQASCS
row,EC50,Compound
1,< 50 nM,"O=C(O)c1ccc2nc(CN3CC=C(c4ccc(F)c(COc5ccc(Cl)cc5Cl)c4)C3)n(Cc3cnco3)c2c1 [Compound 387, 2-[(3-{3-[(2,4-dichlorophenoxy)methyl]-4-fluorophenyl}-2,5-dihydro-1H-pyrrol-1-yl)methyl]-1-[(1,3-oxazol-5-yl)methyl]-1H-1,3-benzodiazole-6-carboxylic acid]"
2,< 50 nM,"O=C(O)c1ccc2nc(CN3CC[C@@H](c4cccc(COc5ccc(Cl)cc5Cl)c4)C3)n(C[C@@H]3CCO3)c2c1 (single isomer, unassigned) [Example 405]"
3,< 50 nM,"O=C(O)c1ccc2nc(CN3CCC(c4cccc(COc5ccc(Cl)cc5Cl)n4)C3)n(C[C@@H]3CCO3)c2c1 (stereo partly drawn) [Example 386, 2-((3-(6-((2,4-Dichlorophenoxy)methyl)pyridin-2-yl)pyrrolidin-1-yl)methyl)-1-(((S)-oxetan-2-yl)methyl)-1H-benzo[d]imidazole-6-carboxylic acid]"
4,< 50 nM,"O=C(O)c1ccc2nc(CN3CC(Cc4ccnc(COc5ccc(Cl)cc5Cl)c4)C3)n(Cc3ncco3)c2c1 [Compound 181, 2-{[3-({2-[(2,4-dichlorophenoxy)methyl]pyridin-4-yl}methyl)azetidin-1-yl]methyl}-1-[(1,3-oxazol-2-yl)methyl]-1H-1,3-benzodiazole-6-carboxylic acid]"
5,< 50 nM,"O=C(O)c1ccc2nc(CN3CC(Cc4ccnc(COc5ccc(Cl)cc5Cl)c4)C3)n(C[C@@H]3CCO3)c2c1 [Example 177, (S)-2-((3-((2-((2,4-Dichlorophenoxy)methyl)pyridin-4-yl)methyl)azetidin-1-yl)methyl)-1-(oxetan-2-ylmethyl)-1H-benzo[d]imidazole-6-carboxylic acid]"
6,< 50 nM,O=C(O)c1ccc2nc(CN3CC(Cc4ccnc(COc5ccc(Cl)cc5Cl)c4)C3)n(C[C@H]3CCOC3)c2c1 [Compound 180]
7,< 50 nM,"O=C(O)c1ccc2nc(CN3CC(Oc4cccc(COc5ccc(Cl)cc5Cl)c4)C3)n(Cc3ncco3)c2c1 [Compound 228, 2-[(3-{3-[(2,4-dichlorophenoxy)methyl]phenoxy}azetidin-1-yl)methyl]-1-[(1,3-oxazol-2-yl)methyl]-1H-1,3-benzodiazole-6-carboxylic acid]"
8,< 50 nM,"O=C(O)c1ccc2nc(CN3CC=C(c4ccc(F)c(COc5ccc(Cl)cc5Cl)c4)C3)n(C[C@@H]3CCO3)c2c1 [Compound 388, 2-[(3-{3-[(2,4-dichlorophenoxy)methyl]-4-fluorophenyl}-2,5-dihydro-1H-pyrrol-1-yl)methyl]-1-{[(2S)-oxetan-2-yl]methyl}-1H-1,3-benzodiazole-6-carboxylic acid]"

# The next lines start with the molecule.
row,Compound,EC50
1,"N#Cc1ccc(OCc2cccc([C@@H]3CCN(Cc4nc5c(F)cc(C(=O)O)cc5n4C[C@@H]4CCO4)C3)c2)c(F)c1 [Compound 445, 2-{[(3S)-3-{3-[(4-cyano-2-fluorophenoxy)methyl]phenyl}pyrrolidin-1-yl]methyl}-4-fluoro-1-{[(2S)-oxetan-2-yl]methyl}-1H-1,3-benzodiazole-6-carboxylic acid]",< 50 nM
2,"C[C@H]1[C@@H](Oc2ccnc(COc3ccc(C#N)cc3F)n2)CN1Cc1nc2ccc(C(=O)O)cc2n1C[C@@H]1CCO1 [Compound 545, 2-{[(2S,3S)-3-({2-[(4-cyano-2-fluorophenoxy)methyl]pyrimidin-4-yl}oxy)-2-methylazetidin-1-yl]methyl}-1-{[(2S)-oxetan-2-yl]methyl}-1H-1,3-benzodiazole-6-carboxylic acid]",< 50 nM
3,"N#CCC1(Cn2c(CN3CC[C@@H](c4ccnc(COc5ccc(Cl)cc5F)c4)C3)nc3ccc(C(=O)O)cc32)CC1 [Compound 431, 2-{[(3S)-3-{2-[(4-chloro-2-fluorophenoxy)methyl]pyridin-4-yl}pyrrolidin-1-yl]methyl}-1-{[1-(cyanomethyl)cyclopropyl]methyl}-1H-1,3-benzodiazole-6-carboxylic acid]",< 50 nM
4,O=C(O)c1ccc2nc(CN3CC(Oc4ccnc(COc5ccc(F)cc5F)n4)C3)n(C[C@@H]3CCO3)c2c1 [Compound 550],< 50 nM
5,"N#CCC1(Cn2c(CN3CC[C@@H](c4ccnc(COc5ccc(Cl)cc5F)c4)C3)nc3c(F)cc(C(=O)O)cc32)CC1 [Compound 432, 2-{[(3S)-3-{2-[(4-chloro-2-fluorophenoxy)methyl]pyridin-4-yl}pyrrolidin-1-yl]methyl}-1-{[1-(cyanomethyl)cyclopropyl]methyl}-4-fluoro-1H-1,3-benzodiazole-6-carboxylic acid]",< 50 nM
6,"O=C(O)c1ccc2nc(CN3CC[C@H](Oc4ccnc(COc5ccc(Cl)cc5F)n4)C3)n(C[C@@H]3CCO3)c2c1 [Example 360, 2-(((S)-3-((2-((4-Chloro-2-fluorophenoxy)methyl)pyrimidin-4-yl)oxy)pyrrolidin-1-yl)methyl)-1-(((S)-oxetan-2-yl)methyl)-1H-benzo[d]imidazole-6-carboxylic acid]",< 50 nM
7,"N#Cc1ccc(OCc2nccc(Oc3cc(F)c(Cc4nc5c(F)cc(C(=O)O)cc5n4C[C@@H]4CCO4)cc3F)n2)c(F)c1 [Compound 470, 2-{[4-({2-[(4-cyano-2-fluorophenoxy)methyl]pyrimidin-4-yl}oxy)-2,5-difluorophenyl]methyl}-4-fluoro-1-{[(2S)-oxetan-2-yl]methyl}-1H-1,3-bcnzodiazole-6-carboxylic acid]",< 50 nM
8,N#Cc1ccc(OCc2nc(N3CC[C@H](Cc4nc5c(F)cc(C(=O)O)cc5n4C[C@@H]4CCO4)C3)ccc2F)c(F)c1 [Compound 529],< 50 nM
9,"CCn1cncc1Cn1c(CN2CC(Cc3cccc4c3OC(C)(c3ccc(Cl)cn3)O4)C2)nc2ccc(C(=O)O)cc21 (stereo not shown) [Compound 185, 2-[(3-{[2-(5-chloropyridin-2-yl)-2-methyl-2H-1,3-benzodioxol-4-yl]methyl}azetidin-1-yl)methyl]-1-[(1-ethyl-1H-imidazol-5-yl)methyl]-1H-1,3-benzodiazole-6-carboxylic acid]",50 to 500 nM
10,"N#Cc1ccc(OCc2nc([C@H]3CCN(Cc4nc5ccc(C(=O)O)cc5n4C[C@@H]4CCO4)C3)ccc2F)c(F)c1 (single isomer, unassigned) [Compound 519]",< 50 nM
11,"N#Cc1ccc(OCc2nc(C3=CCN(Cc4nc5ccc(C(=O)O)cc5n4C[C@@H]4CCO4)C3)ccc2F)c(F)c1 [Compound 408, 2-[(3-{6-[(4-cyano-2-fluorophenoxy)methyl]-5-fluoropyridin-2-yl}-2,5-dihydro-1H-pyrrol-1-yl)methyl]-1-{[(2S)-oxetan-2-yl]methyl}-1H-1,3-benzodiazole-6-carboxylic acid]",< 50 nM
12,N#Cc1ccc(OCc2nc(N3CC[C@@H](Cc4nc5c(F)cc(C(=O)O)cc5n4C[C@@H]4CCO4)C3)ccc2F)c(F)c1 [Compound 534],< 50 nM
13,"N#Cc1ccc(OCc2cccc([C@H]3CCN(Cc4nc5c(F)cc(C(=O)O)cc5n4C[C@@H]4CCO4)C3)c2)c(F)c1 [Compound 444, 2-{[(3R)-3-{3-[(4-cyano-2-fluorophenoxy)methyl]phenyl}pyrrolidin-1-yl]methyl}-4-fluoro-1-{[(2S)-oxetan-2-yl]methyl}-1H-1,3-benzodiazole-6-carboxylic acid]",> 500 nM
14,"Cc1cc(Oc2ccnc(COc3ccc(C#N)cc3F)n2)ccc1Cc1nc2ccc(C(=O)O)cc2n1C[C@@H]1CCO1 [Compound 541, 2-{[4-({2-[(4-cyano-2-fluorophenoxy)methyl]pyrimidin-4-yl}oxy)-2-methylphenyl]methyl}-1-{[(2S)-oxetan-2-yl]methyl}-1H-1,3-benzodiazole-6-carboxylic acid]",< 50 nM
